Test results reported in patent US8470527B2, “Method of inhibiting HIV-1 replication by administering modified GP41 C34 peptide derivatives with enhanced pharmacological properties” (Frontier Biotechnologies, Co., Ltd., priority 2002, dated 2013).
Where two headings read alike, the source gives them in different places.

Legend:
[1] = Cytotoxicity in PBMCs by MTS (secondary cytotoxicity assay, high-test concentration 25 μM); type: cell-based; conditions: human PBMCs, MTS cell viability; modified peptides conjugated with HSA; FB005, FB006 unmodified; read-out: TC50 (50% cytotoxicity drug concentration)
Protocol: For the standard PBMC assay, PHA-P stimulated cells from at least two normal donors were pooled, diluted in fresh medium to a final concentration of 1×10^6 cells/mL, and plated in the interior wells of a 96 well round bottom microplate at 50 μL/well (5×10^4 cells/well). Each plate contains virus/cell control wells (cells plus virus), experimental wells (drug plus cells plus virus) and compound control wells ([…], necessary for MTS monitoring of cytotoxicity). Since HIV-1 is not cytopathic to PBMCs, this allows the use of the same assay plate for both antiviral activity and cytotoxicity measurements. Test drug dilutions were prepared at a 2× concentration in microtiter tubes and 100 μL of each concentration was placed in appropriate wells using the standard format. 50 μL of a predetermined dilution of virus stock was placed in each test well (final MOI≈0.1). The PBMC cultures were maintained for seven days following infection at 37° C., 5% CO2, after which cell-free supernatant samples were collected for analysis of reverse transcriptase activity and/or HIV p24 content. Following removal of supernatant samples, compound cytotoxicity was measured by addition of MTS to the plates for determination of cell viability. Wells were also examined microscopically and any abnormalities noted. […]

HIV-1IIIB = assay: Cellular anti-HIV assay in fresh human PBMC cultures (reverse transcriptase activity and/or p24 readout); type: cell-based
Protocol: The four modified peptides FB006M, FB007M, FB010M, and FB010KM were conjugated to human serum albumin (HSA) by mixing prior to the antiviral test. The results appear in Table 8 below, where IC50 value is the 50% viral inhibition drug concentration, and TC50 value is the 50% cytotoxicity drug concentration.
Pretitered aliquots of HIV-1IIIB was removed from the freezer (−80° C.) and thawed rapidly to room temperature in a biological safety cabinet immediately before use.
Fresh human PBMCs were isolated from screened donors, seronegative for HIV and HBV (Interstate Blood Bank, Inc.; Memphis, Tenn.). Cells were pelleted/washed 2-3 times by low speed centrifugation and resuspension in PBS to remove contaminating platelets. The Leukophoresed blood was then diluted 1:1 with Dulbecco's phosphate buffered saline (PBS) and layered over 14 mL of Lymphocyte Separation Medium in a 50 mL centrifuge tube and then centrifuged for 30 minutes at 600×g. Banded PBMCs were gently aspirated from the resulting interface and subsequently washed 2× with PBS by low speed centrifugation. After the final wash, cells were enumerated by trypan blue exclusion and re-suspended at 1×10^7 cells/mL in RPMI 1640 supplemented with 15% Fetal Bovine Serum (FBS), 2 mM L-glutamine, 4 μg/mL Phytohemagglutinin (PHA-P, Sigma). The cells were allowed to incubate for 48-72 hours at 37° C. After incubation, PBMCs were centrifuged and resuspended in RPMI 1640 with 15% FBS, 2 mM L-glutamine, 100 U/mL penicillin, 100 μg/mL streptomycin, 10 μg/mL gentamycin, and 20 U/mL recombinant human IL-2 (R&D Systems, Inc). […]
For the standard PBMC assay, PHA-P stimulated cells from at least two normal donors were pooled, diluted in fresh medium to a final concentration of 1×10^6 cells/mL, and plated in the interior wells of a 96 well round bottom microplate at 50 μL/well (5×10^4 cells/well). […] Following removal of supernatant samples, compound cytotoxicity was measured by addition of MTS to the plates for determination of cell viability. […]

[2] = HIV-1IIIB in fresh human PBMCs, seven days, FB006M, FB007M, FB010M, FB010KM conjugated with HSA prior to test, FB005, FB006 unmodified peptide, read-out: IC50 (50% viral inhibition drug concentration)

Row | Substance | CC50 at 7 days [1] [nM] | IC50 (HIV-1IIIB; FB006M and FB007M linked to serum albumin, read-out: IC50 (drug concentration for achieving 50% viral inhibition)) [nM] | IC50 (HIV-1IIIB; [2]) [nM]
1 | Ac-WEEWDREINNYTKLIHELIEESQNQQEKNEQELL-NH2 [FB006] | 15900 | 1.4 | 1.41
2 | Ac-SLEQIWNNMTWEEWDREINNYTELIHELIEESQNQQEKNEQELL-NH2 [FB005] | 14300 | – | 0.93
